The text below walks through data of paper PMC6054832, “Novel pharmacological maps of protein lysine methyltransferases: key for target deorphanization” (Journal of Cheminformatics, 2018).

Assay [1] concerns the target T1, KMT5C (Homo sapiens, UniProt Q86Y97). Briefly: radioactive [3H]SAM methyltransferase assay with nucleosome substrate (Eurofins), […]. The class given is biochemical.
The target in assay [2] is T2, NSD1 (Homo sapiens, UniProt Q96L73). The assay is described as above. It is filed as biochemical.
The next assay has as its target KMT2A (Homo sapiens, UniProt Q03164). The experiment in a line: biochemical. Details: Eurofins radiometric methyltransferase inhibition assay with [3H]SAM and nucleosome, core histone or histone H3 substrate. The source says: (§1) Inhibitory activity assays for prospective validation
Assay [3] has as its target T1, KMT5C. Briefly: biochemical. On the set-up: Eurofins radiometric methyltransferase inhibition assay with [3H]SAM and nucleosome, core histone or histone H3 substrate.
Source text: as §1

Assay [4] has as its target T2, NSD1. The experiment in a line: biochemical. Details: Eurofins radiometric methyltransferase inhibition assay with [3H]SAM and nucleosome, core histone or histone H3 substrate.
Source text: as §1

The target of another assay is T3, NSD2 (Homo sapiens, UniProt O96028).
T3 sequence (O96028 1-1365): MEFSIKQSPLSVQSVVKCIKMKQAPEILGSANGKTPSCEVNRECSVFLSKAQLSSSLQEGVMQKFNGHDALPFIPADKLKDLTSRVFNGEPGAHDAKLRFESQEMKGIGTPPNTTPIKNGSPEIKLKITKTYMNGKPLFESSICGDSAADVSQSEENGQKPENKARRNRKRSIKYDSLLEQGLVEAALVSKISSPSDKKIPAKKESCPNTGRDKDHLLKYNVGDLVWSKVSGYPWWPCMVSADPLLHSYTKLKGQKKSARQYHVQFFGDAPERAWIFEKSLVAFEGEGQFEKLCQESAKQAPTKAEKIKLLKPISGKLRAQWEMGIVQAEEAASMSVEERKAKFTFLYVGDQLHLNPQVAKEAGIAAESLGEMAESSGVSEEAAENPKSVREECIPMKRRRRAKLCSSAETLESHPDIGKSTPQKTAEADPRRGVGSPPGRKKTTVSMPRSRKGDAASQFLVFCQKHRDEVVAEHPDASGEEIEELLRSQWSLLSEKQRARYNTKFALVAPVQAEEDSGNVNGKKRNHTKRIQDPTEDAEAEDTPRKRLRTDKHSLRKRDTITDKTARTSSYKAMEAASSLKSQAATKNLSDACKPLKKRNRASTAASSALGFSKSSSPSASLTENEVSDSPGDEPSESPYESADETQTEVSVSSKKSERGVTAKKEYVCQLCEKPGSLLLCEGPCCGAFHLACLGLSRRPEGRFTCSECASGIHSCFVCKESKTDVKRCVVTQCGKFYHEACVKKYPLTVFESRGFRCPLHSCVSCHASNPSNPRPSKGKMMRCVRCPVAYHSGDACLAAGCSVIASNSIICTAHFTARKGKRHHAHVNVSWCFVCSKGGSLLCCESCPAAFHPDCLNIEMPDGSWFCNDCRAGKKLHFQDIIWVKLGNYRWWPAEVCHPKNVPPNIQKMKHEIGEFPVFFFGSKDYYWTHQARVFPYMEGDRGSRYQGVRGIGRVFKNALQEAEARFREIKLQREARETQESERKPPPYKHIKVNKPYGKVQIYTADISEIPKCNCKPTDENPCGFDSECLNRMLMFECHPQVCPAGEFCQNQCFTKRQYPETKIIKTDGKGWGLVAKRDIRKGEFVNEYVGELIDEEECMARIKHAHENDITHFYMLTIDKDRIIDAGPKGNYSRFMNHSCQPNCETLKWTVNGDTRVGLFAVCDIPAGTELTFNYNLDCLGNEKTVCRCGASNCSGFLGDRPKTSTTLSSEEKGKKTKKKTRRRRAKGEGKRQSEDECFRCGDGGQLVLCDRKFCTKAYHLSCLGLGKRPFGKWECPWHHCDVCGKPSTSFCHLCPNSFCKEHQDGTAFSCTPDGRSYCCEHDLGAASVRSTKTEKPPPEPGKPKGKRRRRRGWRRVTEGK
Briefly: biochemical. Details: Eurofins radiometric methyltransferase inhibition assay with [3H]SAM and nucleosome, core histone or histone H3 substrate.
Source text: as §1

For assay [5], the target named is T4, SETD2 (Homo sapiens, UniProt Q9BYW2). Briefly: biochemical. Details: Eurofins radiometric methyltransferase inhibition assay with [3H]SAM and nucleosome, core histone or histone H3 substrate.
Source text: as §1

In assay [6] the target is T4, SETD2. Briefly: radioactive [3H]SAM methyltransferase assay with nucleosome substrate (Eurofins), […]. The class given is biochemical.

Where only a bound is given, the exact number is not on record here.

Chain of KMT2A (Q03164 whole entry): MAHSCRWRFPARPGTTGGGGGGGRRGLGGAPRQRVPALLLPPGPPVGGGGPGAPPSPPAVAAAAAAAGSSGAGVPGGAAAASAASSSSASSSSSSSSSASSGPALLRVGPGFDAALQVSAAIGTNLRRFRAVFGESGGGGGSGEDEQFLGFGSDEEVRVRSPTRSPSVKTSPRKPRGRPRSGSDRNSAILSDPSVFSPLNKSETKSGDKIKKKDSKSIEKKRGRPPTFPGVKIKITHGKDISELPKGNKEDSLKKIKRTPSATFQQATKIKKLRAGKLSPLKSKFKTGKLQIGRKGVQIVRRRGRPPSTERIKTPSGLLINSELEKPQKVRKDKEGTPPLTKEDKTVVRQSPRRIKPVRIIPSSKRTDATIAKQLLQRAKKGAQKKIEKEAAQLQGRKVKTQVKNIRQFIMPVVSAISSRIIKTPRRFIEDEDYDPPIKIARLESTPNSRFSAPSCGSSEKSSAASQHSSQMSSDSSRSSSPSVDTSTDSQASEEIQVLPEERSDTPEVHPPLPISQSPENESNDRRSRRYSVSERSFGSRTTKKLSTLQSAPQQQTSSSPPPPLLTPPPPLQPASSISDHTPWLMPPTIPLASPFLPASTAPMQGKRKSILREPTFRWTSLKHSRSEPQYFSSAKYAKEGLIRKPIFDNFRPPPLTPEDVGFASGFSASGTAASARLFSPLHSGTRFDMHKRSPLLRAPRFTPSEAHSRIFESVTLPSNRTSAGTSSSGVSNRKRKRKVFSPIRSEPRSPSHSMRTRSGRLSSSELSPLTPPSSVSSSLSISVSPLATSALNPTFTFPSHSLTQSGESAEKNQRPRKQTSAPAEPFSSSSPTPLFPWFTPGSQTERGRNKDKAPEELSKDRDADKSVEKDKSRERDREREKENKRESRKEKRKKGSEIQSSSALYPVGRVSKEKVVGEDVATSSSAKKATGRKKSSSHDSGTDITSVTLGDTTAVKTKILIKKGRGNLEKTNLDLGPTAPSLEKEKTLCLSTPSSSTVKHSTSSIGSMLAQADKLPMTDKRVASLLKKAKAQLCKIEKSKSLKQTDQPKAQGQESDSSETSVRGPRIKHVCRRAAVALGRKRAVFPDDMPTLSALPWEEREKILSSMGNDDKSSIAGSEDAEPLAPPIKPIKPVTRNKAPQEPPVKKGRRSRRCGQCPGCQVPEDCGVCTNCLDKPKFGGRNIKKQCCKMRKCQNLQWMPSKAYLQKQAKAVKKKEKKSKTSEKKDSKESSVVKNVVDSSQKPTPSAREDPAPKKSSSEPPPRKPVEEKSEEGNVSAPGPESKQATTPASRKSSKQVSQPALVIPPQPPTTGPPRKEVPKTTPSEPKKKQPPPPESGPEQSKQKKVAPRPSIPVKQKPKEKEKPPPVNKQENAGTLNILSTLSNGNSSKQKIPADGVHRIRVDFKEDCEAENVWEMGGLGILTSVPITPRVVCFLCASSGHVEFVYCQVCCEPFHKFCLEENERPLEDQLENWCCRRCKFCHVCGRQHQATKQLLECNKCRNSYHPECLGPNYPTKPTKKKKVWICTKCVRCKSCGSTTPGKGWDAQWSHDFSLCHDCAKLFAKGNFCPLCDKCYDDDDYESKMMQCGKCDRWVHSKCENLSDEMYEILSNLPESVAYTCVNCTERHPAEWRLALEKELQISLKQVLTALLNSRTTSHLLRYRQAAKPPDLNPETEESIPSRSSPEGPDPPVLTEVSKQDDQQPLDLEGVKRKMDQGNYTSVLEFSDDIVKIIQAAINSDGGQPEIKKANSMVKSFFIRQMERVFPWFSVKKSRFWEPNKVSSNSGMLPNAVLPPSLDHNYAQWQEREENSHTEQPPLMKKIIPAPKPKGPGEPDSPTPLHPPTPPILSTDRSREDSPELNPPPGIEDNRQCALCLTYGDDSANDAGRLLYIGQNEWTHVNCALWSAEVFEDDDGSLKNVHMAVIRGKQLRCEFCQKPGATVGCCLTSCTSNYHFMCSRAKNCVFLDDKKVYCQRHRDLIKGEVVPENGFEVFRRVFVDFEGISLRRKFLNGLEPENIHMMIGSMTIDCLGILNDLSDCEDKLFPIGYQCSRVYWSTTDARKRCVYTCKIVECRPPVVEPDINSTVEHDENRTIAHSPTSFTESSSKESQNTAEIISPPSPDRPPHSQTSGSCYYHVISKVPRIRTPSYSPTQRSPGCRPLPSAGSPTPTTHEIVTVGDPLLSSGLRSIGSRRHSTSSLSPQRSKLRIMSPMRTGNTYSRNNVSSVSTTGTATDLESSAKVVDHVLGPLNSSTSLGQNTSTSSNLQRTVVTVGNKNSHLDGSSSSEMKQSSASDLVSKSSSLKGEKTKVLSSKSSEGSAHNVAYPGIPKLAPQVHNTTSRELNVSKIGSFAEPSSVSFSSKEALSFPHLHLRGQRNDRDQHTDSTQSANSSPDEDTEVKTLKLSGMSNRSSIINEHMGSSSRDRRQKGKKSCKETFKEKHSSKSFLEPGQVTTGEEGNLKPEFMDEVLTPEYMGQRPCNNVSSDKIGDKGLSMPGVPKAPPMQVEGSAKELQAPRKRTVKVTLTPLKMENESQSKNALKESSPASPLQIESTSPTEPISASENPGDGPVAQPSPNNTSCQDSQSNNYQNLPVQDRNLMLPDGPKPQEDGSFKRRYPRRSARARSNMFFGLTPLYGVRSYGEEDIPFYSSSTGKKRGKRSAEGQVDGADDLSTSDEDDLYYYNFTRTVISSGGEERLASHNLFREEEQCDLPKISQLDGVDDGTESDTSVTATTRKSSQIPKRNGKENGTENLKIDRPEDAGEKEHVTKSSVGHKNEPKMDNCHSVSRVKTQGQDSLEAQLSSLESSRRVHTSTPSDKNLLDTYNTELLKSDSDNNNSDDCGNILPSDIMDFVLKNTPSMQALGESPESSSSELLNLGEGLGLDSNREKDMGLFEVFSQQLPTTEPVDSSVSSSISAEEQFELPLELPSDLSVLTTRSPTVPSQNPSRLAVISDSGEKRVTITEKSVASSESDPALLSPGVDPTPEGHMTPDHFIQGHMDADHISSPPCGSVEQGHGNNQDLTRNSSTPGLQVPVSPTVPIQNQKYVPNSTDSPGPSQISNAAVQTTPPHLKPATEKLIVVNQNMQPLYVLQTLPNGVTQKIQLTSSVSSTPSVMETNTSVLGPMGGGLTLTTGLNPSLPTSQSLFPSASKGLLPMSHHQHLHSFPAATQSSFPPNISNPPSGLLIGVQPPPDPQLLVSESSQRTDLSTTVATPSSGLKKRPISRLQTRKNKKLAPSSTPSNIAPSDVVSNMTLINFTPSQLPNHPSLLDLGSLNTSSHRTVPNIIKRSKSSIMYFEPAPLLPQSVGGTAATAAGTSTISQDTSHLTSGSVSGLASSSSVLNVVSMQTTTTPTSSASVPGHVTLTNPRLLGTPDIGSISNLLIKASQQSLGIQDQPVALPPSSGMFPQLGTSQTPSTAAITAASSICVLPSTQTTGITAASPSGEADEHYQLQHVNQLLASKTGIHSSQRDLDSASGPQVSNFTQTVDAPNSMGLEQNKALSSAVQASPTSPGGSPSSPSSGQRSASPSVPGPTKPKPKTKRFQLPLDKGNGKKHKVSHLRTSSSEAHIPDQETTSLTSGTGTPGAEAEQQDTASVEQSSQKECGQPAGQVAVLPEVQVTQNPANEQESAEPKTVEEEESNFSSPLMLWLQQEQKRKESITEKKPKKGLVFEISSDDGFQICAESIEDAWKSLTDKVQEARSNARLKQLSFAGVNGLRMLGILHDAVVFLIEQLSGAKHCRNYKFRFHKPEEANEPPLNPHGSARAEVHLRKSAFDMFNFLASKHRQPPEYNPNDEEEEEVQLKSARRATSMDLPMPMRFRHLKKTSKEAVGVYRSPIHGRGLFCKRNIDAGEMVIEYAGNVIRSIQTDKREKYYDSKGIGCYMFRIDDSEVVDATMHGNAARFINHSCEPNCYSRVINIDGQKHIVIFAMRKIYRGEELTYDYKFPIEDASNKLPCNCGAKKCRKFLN
T1 sequence (Q86Y97 whole entry): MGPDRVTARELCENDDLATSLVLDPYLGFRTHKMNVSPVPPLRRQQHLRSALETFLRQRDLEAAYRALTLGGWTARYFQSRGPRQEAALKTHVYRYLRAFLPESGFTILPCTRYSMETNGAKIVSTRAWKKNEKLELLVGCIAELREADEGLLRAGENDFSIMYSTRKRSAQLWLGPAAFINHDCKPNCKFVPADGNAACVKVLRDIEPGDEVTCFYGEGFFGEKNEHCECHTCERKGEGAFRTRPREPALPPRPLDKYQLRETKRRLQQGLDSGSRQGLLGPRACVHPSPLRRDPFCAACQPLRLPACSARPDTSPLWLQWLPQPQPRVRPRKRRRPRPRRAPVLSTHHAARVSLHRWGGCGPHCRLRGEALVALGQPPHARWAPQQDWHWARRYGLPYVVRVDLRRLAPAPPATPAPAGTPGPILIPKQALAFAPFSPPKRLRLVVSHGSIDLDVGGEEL

As a reminder, the inhibition is the relative decrease from the control value, in per cent. For the molecule `COc1cc2c(NC3CCN(C)CC3)cc(-c3ccc(C)o3)nc2cc1OCCCN1CCCC1` [CM-272], the “radioactive [3H]SAM methyltransferase assay with nucleosome substrate (Eurofins)” value (from here on “radioactive”) at KMT5C [1] is reported as “low micromolar range”. The inhibition at 10 µM is above 50% at NSD1 [2]; -1% on KMT2A; 92% against KMT5C [3]; 63.5% against NSD1 [4]; -0.5% on NSD2. The inhibition at 100 µM against KMT2A was found to be 7.4%; at KMT5C [3], 91.8%; on NSD1 [4], 97.8%; on NSD2, 11.7%; against SETD2 [5], 45.9%.
Take `COc1cc2c(NC3CC4(CCN(C)CC4)C3)cc(-c3ccc(C)o3)nc2cc1OCCCN1CCCC1` [CM-679]: the “radioactive” value on KMT5C [1] is reported as “low micromolar range”. For the same molecule, the inhibition at 100 µM on SETD2 [6] came out at 84%; against KMT2A it was 48.8%; against KMT5C [3] it was 92.9%; on NSD1 [4], 98%; on NSD2 it was 0.3%. In addition, the inhibition at 10 µM at NSD1 [2] was above 50%; against KMT2A it was 8.6%; against KMT5C [3], 85.7%; at NSD1 [4], 81.7%; against NSD2, 11.9%; at SETD2 [5] it was -52.4%.
For the molecule `COc1cc2c(NC3CCN(C)CC3)cc(-c3ccc(C)o3)nc2cc1OC1CC2(C1)CN(C)C2` [CM-986], the “radioactive” value at KMT5C [1] is reported as “low micromolar range”. Further, the inhibition at 10 µM on NSD1 [2] was above 50%; against KMT2A, 2.9%; against KMT5C [3] it was 79.1%; on NSD1 [4], 55.9%; against NSD2 it was -7.2%; against SETD2 [5], -69.8%. Also, the inhibition at 100 µM at KMT2A came out at 30.5%; on KMT5C [3], 87.7%; against NSD1 [4], 98.8%; against NSD2, 2.7%; against SETD2 [5], 42.1%.
